In patent publication US9458492B2, “Methods and cells for identifying RIG-I pathway regulators” (Kineta, Inc., priority 2011, dated 2016):
Entries after “also recorded” stand apart in the source; their conditions may differ.

How the values were obtained:
RSV = RSV plaque formation in HeLa cells; format: cell-based, respiratory syncitial virus (RSV); settings: MOI=1.0 or 0.1, 10 uM in agar overlay, 3-4 days
Protocol: HeLa cells were seeded to 90% confluency and infected with RSV at MOI=1.0 (1^3 dilution) or MOI=0.1 (1^4 dilution) for 2 hours. Virus was removed and cells were overlayed with agar in the presence of KIN101 10 uM. Infected cells were incubated for 3-4 days to allow for RSV plaque formation. Plaques were visualized by staining with crystal violet.

[1] = test system: proteins downstream of IRF activation; assay: Western blot of IRF centric gene products in treated cells; format: cell-based, human; settings: after KIN101 treatment; IFN-β positive control
From the text: Western blot was used to quantitate levels of IRF centric gene products in human whole cell lysates from cells treated with KIN101.

Huh7 cells = format: cell-based, human
Protocol: To assess a potential effect of KIN101 on cellular metabolism, Huh7 cells were grown for 48 hours with increasing doses of KIN101 and analyzed using an MTS assay (the higher the O.D. the more metabolism occurring).
Huh 7 cells were seeded in clear bottom 96-well tissue culture plates and grown for 24 hours. Seeded cells were treated with increasing concentrations of compound (0, 5, 10, 20, and 50 μM in media containing 0.5% DMSO) for 24 hours. Negative control wells contained 0.5% DMSO only and positive control for cytotoxicity was examined using an EMCV infection which causes 100% cytopathic effect. The proportion of viable cells was calculated using a cell viability assay that measures conversion of a tetrazolium compound [[…]-5-(3-carboxymethoxyphenyl)-2-(4-sulfophenyl)-2H-tetrazolium, inner salt; MTS] to a colored formazan compound in live cells. The conversion of MTS to formazan was detected by a 96-well microtiter plate reader, and the resulting optical densities (O.D.) were used directly to estimate cell viability. Cells were incubated for three hours in the presence of one-step reagent (Cell Titer One, Promega) before O.D. reading was done. Experiments were performed in triplicate.

IRF-3 [2] = assay: IRF-3 nuclear translocation in cells expressing HCV NS3-4A protease (viral countermeasure); settings: human osteosarcoma cells expressing HCV NS3-4A protease, 10 μM, 18 h
Protocol: Human osteosarcoma cells were stably transformed with the HCV NS3-4A protease coding sequence under control of a tetracycline inducible promoter. Cells were grown in the presence of tetracycline to keep expression of HCV protease off. […] Sendai virus infection was used as a control for IRF-3 translocation that was inhibited by HCV NS3-4A protease. Mock-treated cells were grown in media containing 0.5% DMSO. Images were analyzed on an Array Scan VTI to quantitate the IRF-3 staining in the nucleus and cytoplasm.
U2OS NS3/4A cells were thoroughly washed to remove Tetracycline and then seeded for the assay in the absence of Tetracycline to enable NS3/4A expression. Compound treatments were done as described above for Huh 7 cells.

RSV-A2 = assay: RSV viral RNA by Real Time PCR in HeLa supernatants; format: cell-based, respiratory syncitial virus (RSV); settings: RSV-A2 MOI=1.0, 48 hours
Protocol: HeLa cells were infected with RSV-A2 MOI=1.0 and subsequently treated with KIN101 at the indicated concentrations and grown for 48 hours. Supernatants from infected cells were harvested, RSV RNA was purified and viral RNA quantitated utilizing Real Time PCR with RSV specific primers. Cells infected with RSV that were not KIN101-treated were utilized as a control.

ISG54 promoter = ISG54 promoter luciferase reporter assay / high-throughput screen in Huh 7 cells; format: cell-based, human
Protocol: A compound referred to herein as “KIN101” was identified by the screening methods disclosed herein as a RIG-I modulator. Huh 7 cells stably expressing a luciferase cistron driven by the ISG54 promoter were treated with KIN101 for 18 hours and then analyzed for luciferase production. […] Huh 7 cells were stably transfected with a luciferase promoter construct driven by the consensus ISG54 promoter. The following sequence was inserted into the pGL4.17 construct (Promega) using the restriction sites indicated (underlined): Reporter cell lines were cultured under antibiotic selection until seeding. Cells were seeded in white opaque bottom 96-well tissue culture plates at a density of 1×10^4 cells/well and grown for 24 hours without antibiotic selection. […] The remainder of the wells were treated with compound diluted to a final concentration of 10 μM in media containing 0.5% DMSO. Cells were incubated with control or compound treatment for 24 hours. Steady-Glo luciferase reagent (Promega) was added at 50 μL per well, mixed thoroughly, and incubated at room temperature for 20 minutes. Luminescence was quantitated per well using a luminometer (Berthold). Confirmation of initial hits was performed in triplicate.

Dengue virus serotype 2 = assay: Dengue virus protein western blot in HEK 293 cells; format: cell-based; settings: 0.1 uM, pre-treated 18 hours, MOI=1.0, 48 hours
Protocol: HEK 293 cells were seeded to a confluency of 80% in a 6-well dish. Cells were grown for 18 hours under normal growth conditions. Cells were treated with the indicated concentration of KIN101 in media containing 0.5% DMSO for 18 hours. The next day drug was removed from treated cells and cells were infected with Dengue virus serotype 2 at an MOI=1.0; infected cells were incubated under normal growth conditions for 48 hours. For Dengue virus analysis whole cell lysates were prepared and analyzed by western blot for Dengue virus specific proteins.

RSV A2 strain = assay: RSV-infected HeLa cell viability (trypan blue count); format: cell-based, respiratory syncitial virus (RSV); settings: HeLa cells, RSV A2 MOI=1.0, treated 48 hours
Protocol: HeLa cells were infected with RSV A2 strain MOI=1.0 and were then treated with KIN101 for 48 hours. Cells were grown under normal growth conditions and cell viability was determined by counting the number of live cells and comparing drug treated and RSV infected cells to infected cells that were mock treated (no drug; vehicle alone). Cells were stained with trypan blue and counted using a hemacytometer. The number of live cells versus concentration of KIN101 added was plotted.

[3] = test system: Influenza A virus WSN strain; assay: Influenza A antiviral assays (NP ELISA, western blot); format: cell-based; settings: NP protein ELISA / western blot
HCV-2a = HCV-2a antiviral assays in Huh 7 cells (immunofluorescence, qPCR); format: cell-based, Hepatitis C virus; settings: Huh7 cells, HCV-2a MOI 1.0
Protocol: Huh 7 cells were treated with KIN101 for 24 hours and then infected with HCV-2a MOI=1.0. Cells were grown for an additional 48 hours and then stained for HCV proteins. The number of infected cells versus concentration of KIN101 added was plotted in panel A.
Huh 7 cells were pre-treated with KIN101 at 10 uM and grown for 18 hours. Cells were then infected with HCV-2a MOI=1.0 and grown for an additional 72 hours. Supernatants from infected cells were harvested, HCV RNA was purified and viral RNA quantitated utilizing Real Time PCR with HCV specific primers. Cells infected with HCV that were not KIN101-treated were utilized as a control and values set to 100% infection rate. Interferon-alpha was used as a positive control for HCV inhibition.
Huh 7 cells were infected with HCV-2a MOI=1.0 and 4 hours following infection compounds or interferon were added to infected cells. The remainder of experiment was performed as described for FIG. 7B.
Huh 7 cells were seeded as described above for the IRF-3 immunofluorescent assay. Cells were treated with 10 μM compound in media containing 0.5% DMSO. […] The number of infected cells was quantitated based on positive staining. […]
Huh 7 cells were seeded and treated as described above for the HCV antiviral assay. […] The genome copies of HCV2a in 5 μL of RNA purified from supernatants was quantitated by qPCR. […]

actin promoter = actin promoter luciferase counter screen in Huh 7 cells; format: cell-based, human; settings: 10 uM
IRF-3 [4] = assay: Immunofluorescent assay for nuclear translocation of IRF-3 in Huh7 cells; format: cell-based, human; settings: 10 μM, 18 h
Protocol: Huh 7 cells were seeded in clear bottom 96-well tissue culture plates at a density of 5×10^3 cells per well and grown for 24 hours. Cells were treated with compounds at final concentrations of 20 μM and 10 μM in media containing 0.5% DMSO. Negative control cells contain 0.5% DMSO only and positive control cells were infected with 10 HA of Sendai virus. […] Staining was performed as directed by instructions in the Cellomics translocation kit (Thermo Scientific). Rabbit polyclonal antibody against IRF-3 was used (1:400). Secondary anti-rabbit antibody conjugated to Dylight 488 (FITC equivalent) and Hoescht dye (nuclear stain) were used for detection of cellular IRF-3 and cell nuclei. Following secondary antibody incubation the monolayers were washed and left in 100 μL wash buffer for imaging. IRF-3 (FITC) and nuclear staining (DAPI) were viewed and quantitated by inverted microscope. Images were taken using MetaMorph software and saved as high resolution image files. Compound treatments were done in triplicate.

MRC5 cells = assay: Expression microarray analysis of KIN101-treated MRC5 cells; format: cell-based, human; settings: 10 μM
Protocol: Expression microarray analysis and bioinformatics were performed as follows. Total RNA isolation and mRNA amplification were performed on equal masses of total RNA from MRC5 cells treated with either DMSO, negative control, or 10 μM KIN101 at 20 hours post treatment, and from MRC5 cells infected with Sendai virus at 20 hours post infection. Probe labeling and microarray slide hybridization were performed with the Agilent Whole Human Genome microarrays, wherein each microarray contains 44K probes, corresponding to approximately 41,000 human genes. Slides were scanned with an Agilent DNA microarray scanner, and the resulting images were analyzed using Agilent Feature Extractor (AFE) version 9.5.3.1. All data were entered into a custom-designed Oracle 9i-backed relational database (Labkey, Inc., Seattle, Wash.) and uploaded into Rosetta Resolver System 7.2 (Rosetta Biosoftware) and Spotfire Decision Site 9.1.1 (Spotfire AB) for analysis and visualization. […] Functional analysis of statistically significant gene expression changes was performed with IPA® (Ingenuity Systems, Inc., Redwood City, Calif.). This software analyzes RNA expression data in the context of known biological response and regulatory networks as well as other higher-order response pathways. IPA functional analysis identified biological functions and/or diseases that were most significant among differentially regulated genes. In the functional networks, genes are represented as nodes, and the biological relationship between 2 nodes is represented as an edge (line). All edges are supported by at least 1 published reference or from canonical information stored in the Ingenuity Pathways Knowledge Base. MRC5 cells were treated with KIN101 (10 μM) or a negative control (selected from the diversity library for having no activity in screening assays) for 20 h. Sendai virus infection was used as a positive control for the up-regulation of innate immune pathways. Total RNA was purified from triplicate samples to enable statistical analysis of the microarray data.

[5] = 20 h, ANOVA p-value <0.01, >2 fold change

SMILES: CS(=O)(=O)Oc1ccc2c(=O)c(-c3ccc(Br)cc3)coc2c1 [KIN101]
- number and size of RSV induced plaques (RSV): decreases the number and size of viral induced plaques
- abundance of proteins downstream of IRF activation (Western blot) [1]: increased abundance of proteins downstream of IRF activation
- effect on cellular metabolism (MTS assay) (Huh7 cells): did not affect cellular metabolism
- IRF-3 nuclear translocation in the presence of viral countermeasure (IRF-3 [2]): induction of IRF-3 nuclear translocation
- amount of RSV viral RNA produced by infected cells (RSV-A2): decreases the amount of RSV viral RNA produced by infected cells
- hit in high-throughput screen for ISG54 luciferase reporter activity (RIG-I agonist activity) (ISG54 promoter; 20,000-member diversity library screened at 10 μM, four standard deviation threshold): hits
- luciferase expression under control of the ISG54 promoter (ISG54 promoter; Huh 7 cells, treated 18 hours, increasing doses): dose dependent increase in luciferase expression
- inhibition of Dengue virus protein accumulation (Dengue virus serotype 2): substantially complete inhibition
- protection from RSV induced cytopathic effects and cell death (RSV A2 strain): protects cells from RSV induced cytopathic effects and cell death
- antiviral activity against Influenza A [3]: antiviral activity
- antiviral activity against HCV (HCV-2a): antiviral activity
- expression of luciferase under control of the actin promoter (actin promoter): did not increase expression of luciferase
- IRF-3 nuclear translocation (IRF-3 [4]): induced nuclear translocation of IRF-3; also recorded: induction of IRF-3 nuclear translocation
- differentially expressed genes compared to DMSO treatment (MRC5 cells; [5]): 75 genes
- down-regulated genes compared to DMSO treatment (MRC5 cells; [5]): 11 genes
- up-regulated genes compared to DMSO treatment (MRC5 cells; [5]): 64 genes
- expression of immune pathways (MRC5 cells; 20 hours post treatment): induced expression of discrete immune pathways centered on IRF signaling
